Entries after “also recorded” stand apart in the source; their conditions may differ.
Experiments:
eNOS = biological target: T1, eNOS (Homo sapiens, UniProt P29474); test: NOS enzyme activity assay (Eurofins), eNOS; format: biochemical; conditions: C1: 1 nM and 1 μM; 30 min reaction
T1 construct: Eurofins (contract assay service)
Description: To evaluate the direct influence of cl on the different isoforms of NOS, an enzyme activity assay was conducted by Eurofins. C1 was mixed with the enzyme buffer, which included co-factors and substrates and by adding the enzyme the reaction was initiated. After 30 min the reaction was stopped, and NO concentration was measured. The results are normalised to positive control performed without any additional compounds and are presented as percentage in inhibition. […] To test the compounds effect on iNOS a concentration range from 1 μM up to 5 μM were applied (1, 10, 100 μM, 1, 10, 100 nM, 1, and 5 μM), and for testing eNOS and nNOS 1 nM and 1 μM were applied.

[1] = tested on: primary cultured neonatal microglia; test: AlamarBlue assay (metabolic activity / cell viability) in microglia; format: cell-based, mouse
Description: Primary cultured neonatal microglia. For preparation of cultured neonatal microglia, P0-P3 mice were used. 10 brains were extracted, meninges and cerebellum were removed and put on ice with Hank's balanced salt solution (HBSS). The dissected brains were washed 3 times before adding 400 μL trypsin (0.1 mg/L) and DNAse (5 μg/L) in phosphate buffered saline (PBS). After 2 min of incubation with this solution, the reaction was blocked by adding plain medium. After removal of the medium, 1 mg DNAse was added and the cells were mechanically dissociated, with a Pasteur pipette followed by a glass pipette. The cells were centrifuged for 10 min at 129 g at 4° C. The supernatant was discarded. The pellet was resuspended in plain medium and plated (2.5 brains/flask) in Poly-L-Lysine coated flasks. The cells were washed after 2 days with PBS and incubated for another 7 days in plain medium. Afterwards the medium was replaced by plain medium with 33% L929 conditioned medium. After 2 days, cells were harvested by shaking them for 30 min at 150 rpm. The supernatant was centrifuged for 10 min at 129 g at 4° C. The cells were plated into a 96 well plate (100 000 cells/well, 200 μL medium per well). This procedure could be repeated 2 times with a 2 day interval.
Concentration-dependent validation and viability determination. Concentrated stock solutions of compounds identified from primary screening were rearranged onto anew 384-well plate, and 10 sequential 2-fold serial dilutions were created across multiple plates in DMSO. Starting from these diluted compound mother plates, the protocol was repeated exactly as for primary screening to span the concentration range between 5 μM and 20 nM. In order to obtain the 10 μM and 20 μM concentration points, 1000 n1 and 2000 n1 were transferred from the 500 μM pre-dilution plate, respectively. Each concentration was measured in duplicate. Normalized percent activities were plotted against the compound concentration to obtain the IC50 values. To obtain also information about the impact of compounds on cell viability, a second batch of plates was prepared as described above, but 5 μl of Alamar Blue solution was added after 48 hours instead of Griess reagent and incubation was continued for additional 4 hours at 37° C. Finally, the resorufin fluorescence was detected at an excitation wavelength of 530 nm and emission of 570 nm. Since no control samples were present on the assay plate for data normalization of cell viability, the raw data values were added on the second y-scale to the IC50 plots.
AlamarBlue assay. […] The conversion of resazurin to resorufin was measured by absorbance (absorbance wavelength of 570 nm and a reference wavelength of 600 nm) after 3 hours.

[2] = tested on: oligodendrocyte cell line OLN-93; test: Propidium iodide based proliferation and cell death assay in OLN-93 cells; conditions: 2.5 μM C1, 48 hours, unstimulated
Description: Cell culture of immortalized cell lines: microglia cell line BV2, and oligodendrocyte cell line OLN-93. The immortalized murine microglia cell line BV2 (Blasi et al., 1990) and the oligodendrocyte cell line OLN-93 (Richter-Landsberg and Heinrich, 1996) were incubated in T75 flasks with plain medium. The cells were split every 2 to 3 days at the dilution 1:10 before they reached confluence. To do so, the cells were washed twice with PBS, followed by up to 5 min of trypsination. The trypsination was stopped using plain medium. The cells were centrifuged at 300 g for 10 min at 4° C., the supernatant was discarded, and the cells were resuspended in new medium and seeded into a new flask.
Propidium iodide based proliferation and cell death assay. To determine the relative proliferation and cell death, the cells were seeded into a […], let adhere for 24 hours and afterwards treated for additional 48 hours. The supernatant was removed, and the cells were washed carefully with 37° C. […] The intensity of the propidium iodide signal of the dead cells was measured using a microplate reader. Afterwards, all cells were killed with a 10 min incubation of 10% DMSO and the propidium iodide signal of all cells was measured. […] The percentage of dead cells was calculated by dividing the dead-cell-signal by the all-cell-signal. Proliferation was calculated as a relative value to the plain medium control.

[3] = tested on: bone marrow derived macrophages; test: AlamarBlue assay (metabolic activity) in macrophages; format: cell-based, mouse; conditions: for cell (metabolic) activity, % of positive control: 1 μg/mL LPS 48 hours
Description: Primary cultured macrophages. Bone marrow macrophages were isolated from C57BL/6 adult mice ([…]-56) as previously described (Marim et al., 2010). In summary, mice were killed by cervical dislocation and the femurs were removed by cutting through the tibia near the pelvic bone and below the knee. Any muscle connected to the bone was carefully removed. Ice cold sterile PBS was slowly flushed through the bone and the contents were collected in a sterile 15 mL polypropylene tube on ice. After centrifugation for 10 min at 200 g at 4° C., red blood cells were lysed by adding 3-10 mL ammonium chloride solution. After a 3-5 min recovery period, the suspension was centrifuged for 10 min at 200 g at 4° C. and the supernatant was removed. Cells were plated in a 10 cm dish with plain medium containing 10 ng/mL M-CSF and cultured for 7 days to allow differentiation. 50 000 cells were plated with 200 μL medium per well in a 96 well plate. AlamarBlue assay. Cells were seeded according to the protocols described above, after compounds and stimuli were added, the cells were washed once with HBSS (37° C.) and 100 μl of a 1:10 AlamarBlue (Thermo Fisher Scientific) dilution in plain medium was added. The conversion of resazurin to resorufin was measured by absorbance (absorbance wavelength of 570 nm and a reference wavelength of 600 nm) after 3 hours.

[4] = Intravenous pharmacokinetic study in mice (blood plasma)
Description: Intravenous Pharmacokinetic Study in Mice. The intravenous pharmacokinetic study in mice was carried out by the company Touchstone Biosciences (Plymouth Meeting, USA) according to their standard procedures. In brief, 3 male adult mice of the CD-1 strain were fasted overnight. 5 mg/kg compound was given intravenously in one shot.

[5] = Intravenous tissue distribution study in mice; format: in vivo, mouse

COc1ccc(NC(=O)C(NC(=O)C2CCCN2C(=O)OCc2ccccc2)c2ccc(OC)cc2)cc1 (stereo not drawn) [C1]
enzymatic activity of eNOS (eNOS): does not interfere
cell viability ([1]; 2 nM to 20 μM, 1 μg/ml LPS 48 h): no effects on cell viability
metabolic activity ([1]; 20 μM C1, 1 μg/mL LPS 48 h): 84%±3.99
metabolic activity in unstimulated microglia ([1]; C1 alone 0.025, 0.25, 2.5 μM, 48 hours): did not show any significant difference; also recorded: nor did it interfere with the metabolic activity
metabolic activity (AlamarBlue) ([1]; HTS setup, LPS stimulated): remained stable
OLN-93 cell death rate [2]: no significant effect
proliferation of OLN-93 cells [2]: did not show an effect; also recorded: Neither C1 nor DMSO changed the proliferation
cell (metabolic) activity, % of positive control ([3]; 0.025 μM C1): 78.47±31.61%
metabolic activity of PolyIC stimulated macrophages ([3]; 0.025 μM C1, 100 μg/mL PolyIC 24 hours): reduction of metabolic activity; also recorded: deceased significantly
cell (metabolic) activity, % of positive control ([3]; 0.25 μM C1): 69.31±36.50%
metabolic activity of IFNγ stimulated macrophages ([3]; 0.25 μM and 2.5 μM C1, 100 ng/mL IFNγ 48 hours): significant decrease in metabolic activity; also recorded: decreased the metabolic of IFNγ (100 ng/ml) significantly compared to plain medium
cell (metabolic) activity, % of positive control ([3]; 2.5 μM C1): 66.48±31.17%
metabolic activity of macrophages stimulated with LPS ([3]; all tested concentrations of C1): decreased the metabolic activity
metabolic activity of PolyIC stimulated macrophages ([3]; higher concentrations of C1 (0.25, 2.5 μM)): did not show a significant difference
survival / health issues within 24 hours ([4]; 5 mg/kg intravenous, 3 mice): All mice survived; also recorded: no health issues were reported and all mice survived
concentration in blood plasma ([4]; 5 min after 5 mg/kg intravenous, CD-1 male mice): 12 µM
concentration at 5 min ([4]; male, CD-1, mouse, plasma, intravenous, 5 mg/kg, concentration in blood plasma, 5 min after 5 mg/kg intravenous, CD-1 male mice): 11.9 µM
concentration at 24 h ([4]; male, CD-1, mouse, plasma, intravenous, 5 mg/kg, concentration in blood plasma, 24 hours after 5 mg/kg intravenous, CD-1 male mice): 0.00126 µM
passage of the blood brain barrier ([5]; 5 mg/kg intravenous): passes the blood brain barrier
concentration in brain ([5]; 30 minutes after 5 mg/kg intravenous): 1 μM/g tissue
concentration in brain ([5]; 4 hours after 5 mg/kg intravenous): 2.4 nM/g tissue
